This is an account of results in patent publication US8530493B2, “Indolopyridines as Eg5 kinesin modulators” (4SC AG, priority 2006, dated 2013).

The structures appear in SMILES notation. A value given as a limit tells only on which side of the number the result lay.

The assay concerns RKO p21 uninduced (proliferating) colon adenocarcinoma cells. The assay can be described thus: Alamar Blue cell viability assay, RKO p21 uninduced (proliferating). Type of assay: cell-based. The conditions noted are these: Homo sapiens, Table B3, anti-proliferative/cytotoxic activity, 72 hours, read-out: −log EC50 RKO p21 uninduced (proliferating) (converted). The procedure: The anti-proliferative/cytotoxic activity of the compounds described herein can be tested on subclones of RKO human colon adenocarcinoma cells (Schmidt et al., Oncogene 19, 2423-2429; 2000) using the Alamar Blue cell viability assay (described in O'Brien et al. Eur J Biochem 267, 5421-5426, 2000). The compounds are dissolved as 10 mM solutions in DMSO and subsequently diluted in semi-logarithmic steps. DMSO dilutions are further diluted 1:100 into Dulbecco's modified Eagle's medium (DMEM) containing 10% fetal calf serum to a final concentration twice as much as the final concentration in the test. RKO subclones are seeded into 96 well flat bottom plates at a density of 4000 cells per well in a volume of 50 μl per well. 24 hours after seeding the 50 μl each of the compound dilutions in DMEM medium are added into each well of the 96 well plate. Each compound dilution is tested as triplicates. Wells containing untreated control cells are filled with 50 μl DMEM medium containing 1% DMSO. The cells are then incubated with the substances for 72 hours at 37° C. in a humidified atmosphere containing 5% carbon dioxide. To determine the viability of the cells, 10 μl of an Alamar Blue solution (Biosource) are added and the fluorescence is measured at an extinction of 544 nm and an emission of 590 nm. For the calculation of the cell viability the emission value from untreated cells is set as 100% viability and the emission rates of treated cells are set in relation to the values of untreated cells. Viabilities are expressed as % values. The Graphpad Prism program is used for the calculation of EC50 values for anti-proliferative/cytotoxic activity out of the obtained dose-response curves.
To determine the cell cycle specific mode of action, subclones of RKO colon adenocarcinoma cells (RKOp21 or RKOp27 as described by Schmidt et al. in Oncogene 19, 2423-2429; 2000) are seeded into 96 well flat bottom plates at a density of 16000 cells per well in a volume of 50 μl per well in DMEM growth medium with 10% FCS containing 10 μM Ponasterone A. 24 hours after seeding the 50 μl each of the compound dilutions in DMEM medium are added into each well of the 96-well plate. Each compound dilution is tested as triplicates. Wells containing untreated control cells are filled with 50 μl DMEM medium containing 1% DMSO. The cells are then incubated with the substances for 72 hours at 37° C. in a humidified atmosphere containing 5% carbon dioxide. To determine the viability of the cells, 10 μl of an Alamar Blue solution (Biosource) are added and the fluorescence is measured at an extinction of 544 nm and an emission of 590 nm. For the calculation of the cell viability the emission value from untreated cells is set as 100% viability and the emission rates of treated cells are set in relation to the values of untreated cells. Viabilities are expressed as % values. The Graphpad Prism program (GraphPad Software, Inc) is used for the calculation of EC50 values out of the obtained dose-response curves. Viability is compared of proliferating cells grown in the absence of the inducer Ponasterone A, versus viability of cells arrested by the expression of ectopic p27Kip1 induced by Ponasterone A.
Representative values for anti-proliferation/cytotoxicity [measured as −log EC50 (mol/l)] determined in the aforementioned assays follow from the following tables B1, B2 and B3, in which the numbers of the compounds correspond to the numbers of the examples.
On the technique in general: Resazurin is reduced to fluorescent resorufin, in cell work by metabolically active cells.
With `CCNCCN1C(=O)N2[C@H](c3cccc(O)c3)c3[nH]c4cc(F)c(OC)cc4c3C[C@@]2(C)C1=O` (racemic) [Example 249, (3aSR,10RS)-2-(2-Ethylamino-ethyl)-7-fluoro-10-(3-hydroxy-phenyl)-6-methoxy-3a-methyl-3a,4,9,10-tetrahydro-2,9,10a-triaza-cyclopenta[b]fluorene-1,3-dione], the EC50 was not above 0.0398 µM.

`COc1ccc2[nH]c3c(c2c1F)C[C@@]1(C)C(=O)N(CCNC(C)(C)C)C(=O)N1[C@@H]3c1cccc(O)c1` (racemic) [Example 414, (3aSR,10RS)-2-(2-tert-Butylamino-ethyl)-5-fluoro-10-(3-hydroxy-phenyl)-6-methoxy-3a-methyl-3a,4,9,10-tetrahydro-2,9,10a-triaza-cyclopenta[b]fluorene-1,3-dinone]: the EC50 was 0.0398 to 0.251 µM. The same measure for `CCNCCN1C(=O)N2[C@H](c3cccc(O)c3)c3[nH]c4ccc(Br)cc4c3C[C@@]2(C)C1=O` (racemic) [Example 393, (3aSR,10RS)-6-Bromo-2-(2-ethylamino-ethyl)-10-(3-hydroxy-phenyl)-3a-methyl-3a,4,9,10-tetrahydro-2,9,10a-triaza-cyclopenta[b]fluorene-1,3-dione]: not above 0.0398 µM. The same measure for `C=CCNCCCN1C(=O)N2[C@H](c3cccc(O)c3)c3[nH]c4cc(F)c(OC)cc4c3C[C@@]2(C)C1=O` (racemic) [Example 334, (3aSR,10RS)-2-(3-Allylamino-propyl)-7-fluoro-10-(3-hydroxy-phenyl)-6-methoxy-3a-methyl-3a,4,9,10-tetrahydro-2,9,10a-triaza-cyclopenta[b]fluorene-1,3-dione]: 0.0398 to 0.251 µM; for `C[C@@]12Cc3c([nH]c4cc(F)c(Cl)cc34)[C@@H](c3cccc(O)c3)N1C(=O)N(CCCN1CC=CCC1)C2=O` (racemic) [Example 480, (3aSR,10RS)-6-Chloro-2-[3-(3,6-dihydro-2H-pyridin-1-yl)-propyl]-7-fluoro-10-(3-hydroxy-phenyl)-3a-methyl-3a,4,9,10-tetrahydro-2,9,10a-triaza-cyclopenta[b]fluorene-1,3-dione]: 0.0398 to 0.251 µM; for `CCNCCN1C(=O)N2[C@H](c3cccc(O)c3)c3[nH]c4cc(F)c(Cl)cc4c3C[C@@]2(C)C1=O` (racemic) [Example 338, (3aSR,10RS)-6-Chloro-2-(2-ethylamino-ethyl)-7-fluoro-10-(3-hydroxy-phenyl)-3a-methyl-3a,4,9,10-tetrahydro-2,9,10a-triaza-cyclopenta[b]fluorene-1,3-dione]: not above 0.0398 µM. With `C[C@@]12Cc3c([nH]c4ccc(OC(F)F)cc34)[C@@H](c3cccc(O)c3)N1C(=O)N(CCCNC1CC1)C2=O` (racemic) [Example 202, (3aSR,10RS)-2-(3-Cyclopropylamino-propyl)-6-(1,1-difluoro-methoxy)-10-(3-hydroxy-phenyl)-3a-methyl-3a,4,9,10-tetrahydro-2,9,10a-triaza-cyclopenta[b]fluorene-1,3-dione], the EC50 was 0.0398 to 0.251 µM. Next, `C[C@@]12Cc3c([nH]c4ccc(OC(F)F)cc34)[C@@H](c3cccc(O)c3)N1C(=O)N(CCNC1CC1)C2=O` (racemic) [Example 286, (3aSR,10RS)-2-(2-Cyclopropylamino-ethyl)-6-(1,1-difluoro-methoxy)-10-(3-hydroxy-phenyl)-3a-methyl-3a,4,9,10-tetrahydro-2,9,10a-triaza-cyclpenta[b]fluorene-1,3-dione]: 0.0398 to 0.251 µM; `CCN(CCO)CCN1C(=O)N2[C@H](c3cccc(O)c3)c3[nH]c4cc(F)c(OC)cc4c3C[C@@]2(C)C1=O` (racemic) [Example 451, (3aSR,10RS)-2-{2-[Ethyl-(2-hydroxy-ethyl)-amino]-ethyl}-7-fluoro-10-(3-hydroxy-phenyl)-6-methoxy-3a-methyl-3a,4,9,10-tetrahydro-2,9,10a-triaza-cyclopenta[b]fluorene-1,3-dione]: 0.0398 to 0.251 µM.

Consider `CCN(CC)CCCN1C(=O)N2[C@H](c3cccc(O)c3)c3[nH]c4cc(F)c(Cl)cc4c3C[C@@]2(C)C1=O` (racemic) [Example 469, (3aSR,10RS)-6-Chloro-2-(3-diethylamino-propyl)-7-fluoro-10-(3-hydroxy-phenyl)-3a-methyl-3a,4,9,10-tetrahydro-2,9,10a-triaza-cyclopenta[b]fluorene-1,3-dione], for which the EC50 was not above 0.0398 µM. The same measure for `C[C@@]12Cc3c([nH]c4ccc(OC(F)F)cc34)[C@@H](c3cccc(O)c3)N1C(=O)N(CCNCC1CC1)C2=O` (racemic) [Example 270, (3aSR,10RS)-2-[2-(Cyclopropylmethyl-amino)-ethyl]-6-(1,1-difluoro-methoxy)-10-(3-hydroxy-phenyl)-3a-methyl-3a,4,9,10-tetrahydro-2,9,10a-triaza-cyclopenta[b]fluorene-1,3-dione]: not above 0.0398 µM. Next, `COc1cc2c3c([nH]c2cc1F)[C@@H](c1cccc(O)c1)N1C(=O)N(CCCN2CCCC2)C(=O)[C@]1(C)C3` (racemic) [Example 322, (3aSR,10RS)-7-Fluoro-10-(3-hydroxy-phenyl)-6-methoxy-3a-methyl-2-(3-pyrrolidin-1-yl-propyl)-3a,4,9,10-tetrahydro-2,9,10a-triaza-cyclopenta[b]fluorene-1,3-dione]: 0.0398 to 0.251 µM. The same measure for `CC(C)(C)NCCN1C(=O)N2[C@H](c3cccc(O)c3)c3[nH]c4ccc(OC(F)F)cc4c3C[C@@]2(C)C1=O` (racemic) [Example 273, (3aSR,10RS)-2-(2-tert-Butylamino-ethyl)-6-(1,1-difluoro-methoxy)-10-(3-hydroxy-phenyl)-3a-methyl-3a,4,9,10-tetrahydro-2,9,10a-triaza-cyclopenta[b]fluorene-1,3-dione]: not above 0.0398 µM; for `COc1cc2c3c([nH]c2cc1F)[C@@H](c1cccc(O)c1)N1C(=O)N(CCCN2CCC(C)CC2)C(=O)[C@]1(C)C3` (racemic) [Example 327, (3aSR,10RS)-7-Fluoro-10-(3-hydroxy-phenyl)-6-methoxy-3a-methyl-2-[3-(4-methyl-piperidin-1-yl)-propyl]-3a,4,9,10-tetrahydro-2,9,10a-triaza-cyclopenta[b]fluorene-1,3-dione]: 0.0398 to 0.251 µM; for `CCOc1ccc2[nH]c3c(c2c1)C[C@@]1(C)C(=O)N(CCCN2CCC2)C(=O)N1[C@@H]3c1cccc(O)c1` (racemic) [Example 198, (3aSR,10RS)-2-(3-Azetidin-1-yl-propyl)-6-ethoxy-10-(3-hydroxy-phenyl)-3a-methyl-3a,4,9,10-tetrahydro-2,9,10a-triaza-cyclopenta[b]fluorene-1,3-dione]: 0.0398 to 0.251 µM. `C[C@@]12Cc3c([nH]c4cc(F)c(Cl)cc34)[C@@H](c3cccc(O)c3)N1C(=O)N(CCCNCC1CC1)C2=O` (racemic) [Example 460, (3aSR,10RS)-6-Chloro-2-[3-(cyclopropylmethyl-amino)-propyl]-7-fluoro-10-(3-hydroxy-phenyl)-3a-methyl-3a,4,9,10-tetrahydro-2,9,10a-triaza-cyclopenta[b]fluorene-1,3-dione]: the EC50 was 0.0398 to 0.251 µM. The same measure for `COCCNCCCN1C(=O)N2[C@H](c3cccc(O)c3)c3[nH]c4ccc(Br)cc4c3C[C@@]2(C)C1=O` (racemic) [Example 214, (3aSR,10RS)-6-Bromo-10-(3-hydroxy-phenyl)-2-[3-(2-methoxy-ethylamino)-propyl]-3a-methyl-3a,4,9,10-tetrahydro-2,9,10a-triaza-cyclopenta[b]fluorene-1,3-dione]: not above 0.0398 µM; for `COc1ccc2[nH]c3c(c2c1)C[C@@]1(C)C(=O)N(CCCCl)C(=O)N1[C@@H]3c1cccc(O)c1` [Example 55a, (3aS,10R)-2-(3-Chloro-propyl)-10-(3-hydroxy-phenyl)-6-methoxy-3a-methyl-3a,4,9,10-tetrahydro-2,9,10a-triaza-cyclopenta[b]fluorene-1,3-dione]: 0.0398 to 0.251 µM.

By EC50 is commonly meant the midpoint of the concentration-response curve.
